Measurements as given in patent US11180509B2, “Thiazolidone spiro pyrimidine trione compound, preparation method therefor and uses thereof” (SHANGHAI INSTITUTE OF MATERIA MEDICA, CHINESE ACADEMY OF …, priority 2017, dated 2021).
In brackets after ≈: the same amount, converted by molar mass.

What was measured:
Streptococcus pyogenes = experiment: In vitro antibacterial activity, MIC by micro broth dilution; format: cell-based; conditions: read-out: MIC Spy
Description: (§1) The following strains isolated in clinic were used in antibacterial activity screening in vitro: five strains of methicillin-resistant Staphylococcus aureus or MRSA, five strains of methicillin-sensitive Staphylococcus aureus or MSSA, five strains of methicillin-resistant Staphylococcus epidermidis or MRSE, five strains of methicillin-sensitive Staphylococcus epidermidis or MSSE, three strains of penicillin-resistant Streptococcus pneumoniae or PRSP, and three strains of Streptococcus pyogenes.
(§2) The above strains were clinically isolated pathogenic bacteria collected in Sichuan and Beijing in December 2015. They were identified by the collection unit via a VITEK-60 automatic microbiological identification instrument, and then re-identified by conventional methods in the laboratory. Before the experiment, each strain was purified by a single colony on an agar plate, and the cells freshly cultured at 37° C. overnight were appropriately diluted for the experiment. Quality control strain was Staphylococcus aureus ATCC25923 purchased from the Clinical Testing Center of the Ministry of Health of the People's Republic of China.
(§3) Medium: MH (Mueller-Hinton, hydrolyzed casein) broth (OXOID);
(§4) Culture condition: Incubate at 35-37° C. for 16-18 h.
(§5) The MIC value of each test sample for the tested strain was determined by micro broth dilution method recommended by Performance Standards for Antimicrobial Susceptibility Testing (Twenty-Third Informational Supplement; M02-A11, M07-A9 and M11-A8, 2013) of American Clinical and Laboratory Standards Institute (CLSI).
(§6) After diluting each test sample to different concentrations in MH broth, 100 μl of each sample solution at different concentrations was pipetted into a sterilized 96-well polystyrene plate. In the first to twelfth wells, the drug solution was added, and the final drug concentrations in each well were 64, 32, 16, 8, 4, 2, 1, 0.5, 0.25, 0.125, 0.06, and 0.03 mg/L. The well without drug and without bacteria was set as blank control well. The well with bacteria and without drug was set as a bacterial growth control well.
(§7) The test bacterial solution was adjusted with physiological saline to a bacterial suspension equivalent to 0.5 Maisson turbidity standard, and diluted 1:100 with MH broth. The drug solution was added so that the final concentration of the bacterial solution was about 10^4 CFU/ml; then 100 μl of bacterial solution was pipetted into the above wells (the total volume in each well was 200 μl). The plate was sealed and placed in a 35-37° C. incubator for 18-20 h, and then the results were determined. […] When Streptococcus pneumoniae was tested, sterile defibrillated sheep blood was added into the Colombian broth culture medium at a final concentration of 5% and cultivation was conducted in a 5% CO2 and 35-37° C. incubator for 18-20 hours.

[1] = tested on: methicillin-resistant Staphylococcus aureus or MRSA; experiment: as above; format: cell-based; conditions: read-out: MIC MRSA
Description: as §1, §2, §3, §4, §5, §6, §7

[2] = tested on: methicillin-resistant Staphylococcus epidermidis or MRSE; experiment: as above; format: cell-based; conditions: read-out: MIC MRSE
Description: as §1, §2, §3, §4, §5, §6, §7

[3] = tested on: methicillin-sensitive Staphylococcus aureus or MSSA; experiment: as above; format: cell-based; conditions: read-out: MIC MSSA
Description: as §1, §2, §3, §4, §5, §6, §7

[4] = tested on: methicillin-sensitive Staphylococcus epidermidis or MSSE; experiment: as above; format: cell-based; conditions: read-out: MIC MSSE
Description: as §1, §2, §3, §4, §5, §6, §7

[5] = tested on: penicillin-resistant Streptococcus pneumoniae or PRSP; experiment: as above; format: cell-based; conditions: read-out: MIC PRSP
Description: as §1, §2, §3, §4, §5, §6, §7

[6] = In vivo pharmacokinetics test in mice (oral); set-up: species or system CD-1 mice; conditions: PO 10.0 mg/kg
Protocol: Healthy female CD-1 mice were randomly divided into five groups and each group comprised three mice. The tested compound was administered orally.
0.030 mL of blood was taken from the orbit of each animal each time and anticoagulated with EDTAK2. The collection time was as follows. PO group: 15 m, 30 mi, 1 h, 2 h, 4 h, 6 h, 8 h, and 24 h after administration of the test compound. The collected blood samples were placed on ice and centrifuged within 30 minutes to separate the plasma (centrifugation conditions: 5000 rpm, 10 minutes, room temperature). The samples were stored at −80° C. before analysis.

[7] = tested on: MRSA, MSSA, MRSE, MSSE, PRSP, and Spy; experiment: In vitro antibacterial activity over the whole strain panel, compared with AZD0914; format: cell-based; conditions: against MRSA
Description: as §1, §2, §5, §6, §7

| SMILES | MIC (Streptococcus pyogenes) | MIC [1] | MIC [2] | MIC [3] | MIC [4] | MIC [5] | AUC0→t relative to AZD0914 ([6]; multiple of the AZD0914 value) | Cmax relative to AZD0914 ([6]; multiple of the AZD0914 value) | AUC0→t ([6]; plasma) | Cmax ([6]; plasma) | MRT ([6]; plasma) | Tmax ([6]; plasma) | t1/2 ([6]; plasma) | in vitro antibacterial activity relative to AZD0914 [7] |
| --- | --- | --- | --- | --- | --- | --- | --- | --- | --- | --- | --- | --- | --- | --- |
| C[C@@H]1CN2c3c(cc4c(N5C[C@H](CN=[N+]=[N-])SC5=O)noc4c3F)CC3(C(=O)NC(=O)NC3=O)[C@H]2[C@H](C)O1 [Compound 10, (2R,4S,4aS)-8-((R)-5-(azidomethyl)-2-oxothiazol-3-yl)-11-fluoro-2,4-dimethyl-1,2,4,4a-tetrahydro-2′H,6H-spiro[isoxazole[4,5-g][1,4]oxazine[4,3-a]quinoline-5,5′-pyrimidine]-2′,4′,6′(1′H,3′H)-trione] | 0.125 to 1 µg/mL (≈ 0.23 to 1.84 µM) | 0.25 to 0.5 µg/mL (≈ 0.459 to 0.918 µM) | 0.03 to 0.125 µg/mL (≈ 0.0551 to 0.23 µM) | 0.06 to 0.25 µg/mL (≈ 0.11 to 0.459 µM) | 0.03 to 0.25 µg/mL (≈ 0.0551 to 0.459 µM) | 0.125 µg/mL (≈ 0.23 µM) |  |  |  |  |  |  |  |  |
| C[C@@H]1CN2c3c(cc4c(N5C(=O)S[C@@H]6CCC[C@@H]65)noc4c3F)CC3(C(=O)NC(=O)NC3=O)[C@H]2[C@H](C)O1 [Compound 21, (2R,4S,4aS)-11-fluoro-2,4-dimethyl-8-((3aS,6aR)-2-oxotetrahydro-2H-cyclopentane[d]thiazol-3(3aH)-yl)-1,2,4,4a-tetrahydro-2′H,6H-spiro[isoxazole[4,5-g][1,4]oxazine [4,3-a]quinoline-5,5′-pyrimidine]-2′,4′,6′(1′H,3′H)-trione] | 0.03 to 0.125 µg/mL (≈ 0.0567 to 0.236 µM) | 0.03 to 0.125 µg/mL (≈ 0.0567 to 0.236 µM) | 0.03 to 0.06 µg/mL (≈ 0.0567 to 0.113 µM) | 0.03 to 0.125 µg/mL (≈ 0.0567 to 0.236 µM) | 0.03 to 0.125 µg/mL (≈ 0.0567 to 0.236 µM) | 0.03 to 0.125 µg/mL (≈ 0.0567 to 0.236 µM) |  |  |  |  |  |  |  |  |
| CC[C@@H]1CN(c2noc3c(F)c4c(cc23)CC2(C(=O)NC(=O)NC2=O)[C@H]2[C@H](C)O[C@H](C)CN42)C(=O)S1 [Compound 16, (2R,4S,4aS)-8-((R)-5-ethyl-2-oxothiazol-3-yl)-11-fluoro-2,4-dimethyl-1,2,4,4a-tetrahydro-2′H,6H-spiro[isoxazole[4,5-g][1,4]oxazine[4,3-a]quinoline-5,5′-pyrimidine]-2′,4′,6′(1′H,3′H)-trione] | < 0.03 µg/mL | 0.03 to 0.06 µg/mL (≈ 0.058 to 0.116 µM) | < 0.03 µg/mL | 0.03 to 0.06 µg/mL (≈ 0.058 to 0.116 µM) | < 0.03 µg/mL | 0.03 to 0.06 µg/mL (≈ 0.058 to 0.116 µM) | ~11 times) | ~13 times) | 8057 ± 1469 ng·h/mL | 2376 ± 411 ng/mL | 3.45 ± 0.788 h | 1.17 ± 0.764 h | 1.59 ± 0.495 h | about 8 times |
| C[C@@H]1CN2c3c(cc4c(N5C[C@H](CF)SC5=O)noc4c3F)CC3(C(=O)NC(=O)NC3=O)[C@H]2[C@H](C)O1 [Compound 6] | 0.03 to 0.06 µg/mL (≈ 0.0575 to 0.115 µM) | 0.03 to 1 µg/mL (≈ 0.0575 to 1.92 µM) | 0.03 to 0.06 µg/mL (≈ 0.0575 to 0.115 µM) | 0.06 to 0.125 µg/mL (≈ 0.115 to 0.24 µM) | < 0.03 µg/mL | 0.06 to 0.25 µg/mL (≈ 0.115 to 0.479 µM) |  |  |  |  |  |  |  |  |
| CC[C@H]1CN(c2noc3c(F)c4c(cc23)CC2(C(=O)NC(=O)NC2=O)[C@H]2[C@H](C)O[C@H](C)CN42)C(=O)S1 [Compound 19, (2R,4S,4aS)-8-((S)-5-ethyl-2-oxothiazol-3-yl)-11-fluoro-2,4-dimethyl-1,2,4,4a-tetrahydro-2′H,6H-spiro[isoxazole[4,5-g][1,4]oxazine[4,3-a]quinoline-5,5′-pyrimidine]-2′,4′,6′(1′H,3′H)-trione] | < 0.03 µg/mL | < 0.03 µg/mL | < 0.03 µg/mL | < 0.03 µg/mL | 0.03 to 0.06 µg/mL (≈ 0.058 to 0.116 µM) | 0.03 to 0.06 µg/mL (≈ 0.058 to 0.116 µM) |  |  |  |  |  |  |  | about 8 times |
